Results from publication PMC11200585, “Prospects for Prostate Cancer Chemotherapy: Cytotoxic Evaluation and Mechanistic Insights of Quinolinequinones with ADME/PK Profile” (Biomedicines, 2024).

How the values were obtained:
Assay type in all cases: cell-based, human
MDA-MB-231/ATCC [1] = assay: NCI-60 five-dose assay (breast cancer); details: 48 h, SRB
SK-MEL-28 [2] = assay: NCI-60 one-dose screen (melanoma); details: 10 µM single dose
Procedure: (§1) The obtained quinolinequinones were submitted to NCI, Bethesda, USA, and, as per standard protocol of NCI, all compounds were evaluated for their antiproliferative activity at single-dose assay (10 µM concentration in DMSO) on a panel of 60 cancer cell lines derived from leukemia, non-small-cell lung, colon, CNS, melanoma, ovarian, renal, prostate, and breast, as per protocol. Tested compounds were added to the microtiter culture plates followed by incubation for 48 h at 37 °C. Sulforhodamine B (SRB), a protein-binding dye, is used for endpoint determination. The percent of the growth of the treated cells was determined in comparison to the untreated control cells and the results of each tested compound were reported. Data from one-dose experiments pertain to the percentage growth at 10 μM [16, 17, 18].

UACC-62 = assay: NCI-60 one-dose screen (melanoma); details: 10 µM single dose, 48 h
Procedure: as §1

MALME-3M = assay: NCI-60 one-dose screen (melanoma); details: 10 µM single dose, 48 h
Procedure: as §1

UACC-257 [3] = assay: NCI-60 one-dose screen (melanoma); details: 10 µM single dose, 48 h
Procedure: as §1

SK-MEL-5 [4] = assay: NCI-60 one-dose screen (melanoma); details: 10 µM single dose, 48 h
Procedure: as §1

MDA-MB-435 = assay: NCI-60 one-dose screen (melanoma); details: 10 µM single dose, 48 h
Procedure: as §1

SK-MEL-2 = assay: NCI-60 one-dose screen (melanoma); details: 10 µM single dose, 48 h
Procedure: as §1

LOX IMVI = assay: NCI-60 one-dose screen (melanoma); details: 10 µM single dose, 48 h
Procedure: as §1

K-562 [5] = assay: NCI-60 one-dose screen (leukemia)
RPMI-8226 [6] = assay: NCI-60 one-dose screen (leukemia); details: 10 µM single dose, 48 h
CCRF-CEM [7] = assay: NCI-60 one-dose screen (leukemia); details: 10 µM single dose, 48 h
SR = assay: NCI-60 one-dose screen (leukemia); details: 10 µM single dose, 48 h
HL-60(TB) = assay: NCI-60 one-dose screen (leukemia); details: 10 µM single dose, 48 h
NCI-H23 = assay: NCI-60 five-dose assay (non-small cell lung cancer); details: 48 h, SRB
MDA-MB-468 = assay: NCI-60 one-dose screen (breast cancer); details: 10 µM single dose, 48 h
Procedure: as §1

MDA-MB-231/ATCC [8] = assay: NCI-60 one-dose screen (breast cancer); details: 10 µM single dose, 48 h
Procedure: as §1

T-47D = assay: NCI-60 one-dose screen (breast cancer); details: 10 µM single dose, 48 h
Procedure: as §1

BT-549 = assay: NCI-60 one-dose screen (breast cancer); details: 10 µM single dose, 48 h
Procedure: as §1

HS 578T = assay: NCI-60 one-dose screen (breast cancer); details: 10 µM single dose
Procedure: as §1

MCF7 [9] = assay: NCI-60 one-dose screen (breast cancer); details: 10 µM single dose, 48 h
Procedure: as §1

CCRF-CEM [10] = assay: NCI-60 five-dose assay (leukemia); details: 48 h, SRB
SK-OV-3 = assay: NCI-60 five-dose assay (ovarian cancer); details: 48 h, SRB
K-562 [11] = assay: NCI-60 five-dose assay (leukemia); details: Homo sapiens, K562, 48 h, SRB
MOLT-4 = assay: NCI-60 five-dose assay (leukemia); details: 48 h, SRB
UACC-257 [12] = assay: NCI-60 five-dose assay (melanoma); details: 48 h, SRB
HOP-62 = assay: NCI-60 five-dose assay (non-small cell lung cancer); details: 48 h, SRB
SK-MEL-28 [13] = assay: NCI-60 five-dose assay (melanoma); details: 48 h, SRB
HT29 = assay: NCI-60 five-dose assay (colon cancer); details: SRB
SW-620 = assay: NCI-60 five-dose assay (colon cancer); details: 48 h, SRB
SK-MEL-5 [14] = assay: NCI-60 five-dose assay (melanoma); details: 48 h, SRB
RPMI-8226 [15] = assay: NCI-60 five-dose assay (leukemia); details: 48 h, SRB
EKVX = assay: NCI-60 five-dose assay (non-small cell lung cancer); details: 48 h, SRB
A549/ATCC = assay: as above; details: 48 h, SRB
HCC-2998 = assay: NCI-60 five-dose assay (colon cancer); details: 48 h, SRB
SNB-19 = assay: NCI-60 five-dose assay (CNS cancer); details: 48 h, SRB
MCF7 [16] = assay: NCI-60 five-dose assay (breast cancer); details: 48 h, SRB
[17] = Homo sapiens, read-out: LC50 (the source's name)

Work on `CCOc1ccccc1NC1=C(Cl)C(=O)c2nc(C)ccc2C1=O` [AQQ2] yielded a TGI (MDA-MB-231/ATCC [1]) of 2.38 µM, a GI50 (MDA-MB-231/ATCC [1]; Homo sapiens) of 1.07 µM and an LC50 (concentration killing 50% of cells) (MDA-MB-231/ATCC [1]; Homo sapiens) of 5.31 µM. For the same compound, the “GP (growth percentage)” value (SK-MEL-28 [2]; 48 h) was 14.55%, the inhibition at 10 µM (SK-MEL-28 [2]; Homo sapiens) was 85.5% and the “GP (growth percentage)” value (UACC-62) was −29.14%. The “GP (growth percentage)” value (MALME-3M) was −71.39%, the “GP (growth percentage)” value (UACC-257 [3]) was −88.33% and the “GP (growth percentage)” value (SK-MEL-5 [4]) was −97.76%. For the same compound, the “GP (growth percentage)” value (MDA-MB-435) was −85.72%, the “GP (growth percentage)” value (SK-MEL-2) was −15.72% and the “GP (growth percentage)” value (LOX IMVI) was −82.20%. For the same compound, the “GP (growth percentage)” value (K-562 [5]; 10 µM single dose, 48 h) was 1.26%, the inhibition at 10 µM (K-562 [5]; Homo sapiens, K562, 10 µM single dose) was 98.7% and the “GP (growth percentage)” value (RPMI-8226 [6]) was −35.12%. For the same compound, the “GP (growth percentage)” value (CCRF-CEM [7]) was −6.33%, the “GP (growth percentage)” value (SR) was −12.75% and the “GP (growth percentage)” value (HL-60(TB)) was −36.75%. The TGI (NCI-H23) was 3.55 µM, the GI50 (NCI-H23; Homo sapiens) was 1.44 µM and the CC50 (NCI-H23; [17]) was 8.71 µM. The “GP (growth percentage)” value (MDA-MB-468) was −90.72%, the “GP (growth percentage)” value (MDA-MB-231/ATCC [8]) was −63.63% and the “GP (growth percentage)” value (T-47D) was −40.00%. For the same compound, the “GP (growth percentage)” value (BT-549) was 44.40%, the “GP (growth percentage)” value (HS 578T; 48 h) was 1.05% and the inhibition at 10 µM (HS 578T; Homo sapiens) was 99%. The “GP (growth percentage)” value (MCF7 [9]) was −59.68%, the TGI (CCRF-CEM [10]) was >100 µM and the GI50 (CCRF-CEM [10]; Homo sapiens) was 1.41 µM. The LC50 (concentration killing 50% of cells) (CCRF-CEM [10]; Homo sapiens) was > 100 µM, the TGI (SK-OV-3) was 27.1 µM and the GI50 (SK-OV-3; Homo sapiens) was 13.5 µM. The LC50 (50% net cell kill) (SK-OV-3; Homo sapiens) was 54.2 µM, the GI50 (K-562 [11]) was 0.341 µM and the LC50 (K-562 [11]) was > 100 µM. For the same compound, the TGI (MOLT-4) was 8.09 µM, the GI50 (MOLT-4; Homo sapiens) was 2.03 µM and the LC50 (MOLT-4; Homo sapiens) was > 100 µM. The TGI (UACC-257 [12]) was 2.61 µM, the GI50 (UACC-257 [12]; Homo sapiens) was 1.28 µM and the LC50 (NCI-60 lethal concentration, 50% cell kill) (UACC-257 [12]; Homo sapiens) was 5.34 µM. For the same compound, the TGI (HOP-62) was 6.74 µM, the GI50 (HOP-62; Homo sapiens) was 2.27 µM and the LC50 (concentration killing 50% of cells) (HOP-62; Homo sapiens) was 28.8 µM. The TGI (SK-MEL-28 [13]) was 3.14 µM, the GI50 (SK-MEL-28 [13]; Homo sapiens) was 1.71 µM and the LC50 (SK-MEL-28 [13]; Homo sapiens) was 5.79 µM. It also gave a TGI (HT29; 48 h) of 15.2 µM, a GI50 (HT29; Homo sapiens, HT-29, 48 h) of 3.4 µM and an LC50 (concentration killing 50% of cells) (HT29; Homo sapiens, HT-29, 48 h) of 99.5 µM. It also gave a TGI (SW-620) of 3.21 µM, a GI50 (SW-620; Homo sapiens) of 1.6 µM and an LC50 (SW-620; Homo sapiens) of 6.41 µM. It also gave a TGI (SK-MEL-5 [14]) of 3.13 µM, a GI50 (SK-MEL-5 [14]; Homo sapiens) of 1.74 µM and a CC50 (SK-MEL-5 [14]; [17]) of 5.65 µM. The TGI (RPMI-8226 [15]) was 4.71 µM, the GI50 (RPMI-8226 [15]; Homo sapiens) was 1.2 µM and the CC50 (RPMI-8226 [15]; [17]) was > 100 µM. For the same compound, the TGI (EKVX) was 2.98 µM, the GI50 (EKVX; Homo sapiens) was 1.56 µM and the CC50 (EKVX; [17]) was 5.7 µM. It also gave a TGI (A549/ATCC) of 4.64 µM, a GI50 (A549/ATCC; Homo sapiens) of 2.06 µM and a CC50 (A549/ATCC; [17]) of 12.9 µM. The TGI (HCC-2998) was 3.52 µM, the GI50 (HCC-2998; Homo sapiens) was 1.94 µM and the LC50 (concentration killing 50% of cells) (HCC-2998; Homo sapiens) was 6.39 µM. For the same compound, the TGI (SNB-19) was 3.97 µM, the GI50 (SNB-19; Homo sapiens) was 1.8 µM and the CC50 (SNB-19; [17]) was 8.73 µM. The TGI (MCF7 [16]) was 3.65 µM and the GI50 (MCF7 [16]; Homo sapiens) was 1.33 µM.
